{
  "source": "patent US20110112132A1",
  "about": "“MEANS FOR THE TREATMENT OF ACUTE AND CHRONIC DISORDERS OF CEREBRAL CIRCULATION, INCLUDING INSULT, BASED ON HYDROGENATED PYRIDO (4,3-B) INDOLES (VARIANTS), PHARMACOLOGICAL MEANS BASED THEREON AND METHOD FOR THE USE THEREOF” (Medivation Neurology, Inc., priority 2006, published 2011)",
  "key": {"[1]": {"tested_on": "rats with hemorrhagic insult", "assay": "Intracerebral post-traumatic hematoma (hemorrhagic insult) model: death of animals", "assay_type": "in vivo, rat", "settings": "0.1 mg/kg i.p.; entire period of observation", "experimental": "(§1) The study was performed in accordance with the “Methodological instructions for the experimental study of preparations for the treatment of cerebral circulation and migraine,” in “Handbook on the experimental (preclinical) study of new pharmacological substances,” Meditsina, Moscow, 2005, pp. 332-338, as modified by A. N. Makarenko et al. (“Method for modeling local hemorrhage in various brain structures in experimental animals,” Zh. vyssh. nervn. deyat. (2002) 52(6):765-768).\nThe experiments were performed on cross-bred male white rats weighing 200-250 g, kept in a vivarium with free access to food (standard pelleted feed) and water, and with natural alternation of day and night. […]\nThe animals were divided into 4 groups: sham-operated, a group of animals with hemorrhagic insult, animals with hemorrhagic insult which received dimebon intraperitoneally at a dose of 0.1 mg/kg, and animals with hemorrhagic insult which received nimodipine intraperitoneally at a dose of 0.1 mg/kg. The effects of the substances were recorded 24 hours, and 3, 7 and 14 days after operation. […]\nRat deaths were recorded over the entire 14 day period of observation. […]"}, "AMPA receptors": {"tested_on": "AMPA receptors", "settings": "rat brain neurons; cited from earlier work"}, "[2]": {"tested_on": "rats with cerebral ischemia induced by ligation of the carotid arteries", "assay": "Rat brain ischemia by ligation of the carotid arteries: neurological deficit, McGraw Stroke index", "assay_type": "in vivo", "settings": "0.1 mg/kg i.p.", "experimental": "Rat brain ischemia, produced by irreversible occlusion of the carotid arteries, was performed in accordance with “Methodological instructions for the experimental study of preparations for the treatment of cerebral circulation and migraine,” in “Handbook on the experimental (preclinical) study of new pharmacological substances,” Meditsina, Moscow, 2005, pp. 332-338.\nExperiments were performed on cross-bred male white rats weighing 200-250 g, anesthetized with chloral hydrate (350 mg/kg, i/p). Irreversible single-step bilateral ligation of the common carotid arteries was performed on the animals. In the group of sham-operated animals, the ligatures were applied to the vessels but were not tightened.\nAfter completing the operation, the animals were divided randomly into groups: group one rats were given dimebon intraperitoneally at 0.1 mg/kg administered 30 minutes after the ligature was tied, then daily for 14 days after operation; group two rats were given nimodipine intraperitoneally at 0.1 mg/kg administered 30 minutes after the ligature was tied, then daily for 14 days after operation. Group one and group two animals were experiencing an acute cerebral circulation disturbance at the time of drug administration. Control group and sham-operated animals were given equivalent volumes of physiological saline (0.9% sodium chloride) at the same times.\nNeurological deficit in animals with cerebral ischemia induced by ligation of the carotid arteries was determined using the McGraw Stroke index as modified by I. V. Gannushkina (Functional angioarchitectonics of the brain (1977) (Moscow, Meditsina) p. 224). The severity of the condition was determined from the sum of the corresponding scores. The number of rats with mild symptoms up to 2.5 points on the Stroke-index scale (sluggish movements, limb weakness, hemiptosis, tremor, circular movements) and with severe manifestations of neurological impairment (from 3 to 10 points)—limb paresis, paralysis of lower limbs, lateral position, was noted."}, "NMDA receptors": {"tested_on": "NMDA receptors", "settings": "rat brain neurons; cited from earlier work"}, "[3]": {"tested_on": "rats with hemorrhagic insult", "assay": "Intracerebral post-traumatic hematoma (hemorrhagic insult) model: neurological deficit, McGraw Stroke index", "assay_type": "in vivo, rat", "experimental": "as §1\nThe experiments were performed on cross-bred male white rats weighing 200-250 g, kept in a vivarium with free access to food (standard pelleted feed) and water, and with natural alternation of day and night. Using a special device (mandrin-knife) and stereotaxis, brain tissue of rats anesthetized with nembutal (40 mg/kg, i/m) was destroyed in the region of the capsule interna, with subsequent (after 2-3 minutes) introduction into the damage site of blood taken from under the rat's tongue (0.02-0.03 ml). Scalping and trepanning of the skull were performed on sham-operated animals.\nThe animals were divided into 4 groups: sham-operated, a group of animals with hemorrhagic insult, animals with hemorrhagic insult which received dimebon intraperitoneally at a dose of 0.1 mg/kg, and animals with hemorrhagic insult which received nimodipine intraperitoneally at a dose of 0.1 mg/kg. The effects of the substances were recorded 24 hours, and 3, 7 and 14 days after operation.\nDimebon and nimodipine were administered intraperitoneally to animals with insult in an identical dose of 0.1 mg/kg 3-3.5 hours after operation, and then daily for 14 days after operation. An equal volume of physiological saline was administered intraperitoneally to the control groups of animals at identical intervals. Each group consisted of 9-18 animals at the start of the experiment.\nThe neurological deficit in the animals was determined using the McGraw Stroke index as modified by I. V. Gannushkina (Functional angioarchitectonics of the brain (1977) (Moscow, Meditsina) p. 224). The severity of the condition was determined from the sum of the corresponding scores. The number of rats with mild symptoms up to 2.5 points on the Stroke-index scale (sluggish movements, limb weakness, unilateral hemiptosis, tremor, circular movements) and with severe manifestations of neurological impairment (from 3 to 10 points)—limb paresis, paralysis of lower limbs, lateral position, was noted."}, "[4]": {"settings": "24 hours after operation (hemorrhagic insult), 0.1 mg/kg i.p."}, "[5]": {"settings": "14 days after operation (hemorrhagic insult), 0.1 mg/kg i.p. daily"}},
  "note": "Counter-ions that a name gives are not always drawn. Marks after values point to notes of the source that are not given here.",
  "data": [
    {"compound": "Cc1ccc2c(c1)c1c(n2CCc2ccc(C)nc2)CCN(C)C1", "note": "[dimebon, 2,8-dimethyl-5-[2-(6-methyl-pyridyl-3-)ethyl]2,3,4,5-tetrahydro-1H-pyrido[4,3-b]indole dihydrochloride]", "values": [
      {"measurement": "Effect on death of animals after hemorrhagic insult, in words", "setting": "[1]", "value": "almost completely prevented the death of animals"},
      {"measurement": "Effect on transmembrane currents induced by the activation of AMPA receptors, in words", "setting": "AMPA receptors", "value": "potentiates the transmembrane currents"},
      {"measurement": "Effect on neurological deficit in rats with ischemia, in words", "setting": "[2]; first and particularly seventh day after operation", "value": "prevented the development of neurological deficit"},
      {"measurement": "Number of animals with bilateral hemiptosis", "setting": "[2]; 1 day after ischemic insult", "value": "33.3* %"},
      {"measurement": "Number of animals with limb weakness", "setting": "[2]; 1 day after ischemic insult", "value": 16.7, "unit": "%"},
      {"measurement": "Number of animals with sluggish, slow movements", "setting": "[2]; 1 day after ischemic insult", "value": "33.3* %"},
      {"measurement": "Number of animals with unilateral hemiptosis", "setting": "[2]; 1 day after ischemic insult", "value": 16.7, "unit": "%"},
      {"measurement": "Number of animals with bilateral hemiptosis", "setting": "[2]; 3 days after ischemic insult", "value": "25.0* %"},
      {"measurement": "Number of animals with limb weakness", "setting": "[2]; 3 days after ischemic insult", "value": 16.7, "unit": "%"},
      {"measurement": "Number of animals with sluggish, slow movements", "setting": "[2]; 3 days after ischemic insult", "value": 33.3, "unit": "%"},
      {"measurement": "Number of animals with unilateral hemiptosis", "setting": "[2]; 3 days after ischemic insult", "value": 0, "unit": "%"},
      {"measurement": "Number of animals with bilateral hemiptosis", "setting": "[2]; 7 days after ischemic insult", "value": "9.1* %"},
      {"measurement": "Number of animals with limb weakness", "setting": "[2]; 7 days after ischemic insult", "value": 9.1, "unit": "%"},
      {"measurement": "Number of animals with sluggish, slow movements", "setting": "[2]; 7 days after ischemic insult", "value": "9.1* %"},
      {"measurement": "Number of animals with unilateral hemiptosis", "setting": "[2]; 7 days after ischemic insult", "value": 0, "unit": "%"},
      {"measurement": "Number of animals with bilateral hemiptosis", "setting": "[2]; 14 days after ischemic insult", "value": 0, "unit": "%"},
      {"measurement": "Number of animals with limb weakness", "setting": "[2]; 14 days after ischemic insult", "value": 0, "unit": "%"},
      {"measurement": "Number of animals with sluggish, slow movements", "setting": "[2]; 14 days after ischemic insult", "value": 0, "unit": "%"},
      {"measurement": "Number of animals with unilateral hemiptosis", "setting": "[2]; 14 days after ischemic insult", "value": 0, "unit": "%"},
      {"measurement": "Number of animals with unilateral ptosis", "setting": "[2]; 14 days after ischemic insult", "value": 0, "unit": "%"},
      {"measurement": "Effect on NMDA receptors, in words", "setting": "NMDA receptors", "value": "blocks the NMDA receptors"},
      {"measurement": "Effect on number of animals with pareses after hemorrhagic insult, in words", "setting": "[3]; 0.1 mg/kg i.p., first day of observation", "value": "almost halving the number of animals with pareses"},
      {"measurement": "Number of animals with circular movements", "setting": "[3]; [4]", "value": 33, "unit": "%"},
      {"measurement": "Number of animals with limb weakness", "setting": "[3]; [4]", "value": 66, "unit": "%"},
      {"measurement": "Number of animals with paresis of 1-4 limbs", "setting": "[3]; [4]", "value": 33, "unit": "%"},
      {"measurement": "Number of animals with sluggish, slow movements", "setting": "[3]; [4]", "value": 88, "unit": "%"},
      {"measurement": "Number of animals with circular movements", "setting": "[3]; [5]", "value": 0, "unit": "%"},
      {"measurement": "Number of animals with limb weakness", "setting": "[3]; [5]", "value": 7, "unit": "%"},
      {"measurement": "Number of animals with paresis of 1-4 limbs", "setting": "[3]; [5]", "value": 0, "unit": "%"},
      {"measurement": "Number of animals with sluggish, slow movements", "setting": "[3]; [5]", "value": 7, "unit": "%"}
    ]},
    {"compound": "COCCOC(=O)C1=C(C)NC(C)=C(C(=O)OC(C)C)C1c1cccc([N+](=O)[O-])c1", "note": "(stereo not shown) [nimodipine, reference compound]", "values": [
      {"measurement": "Number of animals with bilateral hemiptosis", "setting": "[2]; 1 day after ischemic insult", "value": 50, "unit": "%"},
      {"measurement": "Number of animals with limb weakness", "setting": "[2]; 1 day after ischemic insult", "value": 20, "unit": "%"},
      {"measurement": "Number of animals with sluggish, slow movements", "setting": "[2]; 1 day after ischemic insult", "value": 50, "unit": "%"},
      {"measurement": "Number of animals with unilateral hemiptosis", "setting": "[2]; 1 day after ischemic insult", "value": 20, "unit": "%"},
      {"measurement": "Number of animals with bilateral hemiptosis", "setting": "[2]; 3 days after ischemic insult", "value": "20* %"},
      {"measurement": "Number of animals with limb weakness", "setting": "[2]; 3 days after ischemic insult", "value": 0, "unit": "%"},
      {"measurement": "Number of animals with sluggish, slow movements", "setting": "[2]; 3 days after ischemic insult", "value": 30, "unit": "%"},
      {"measurement": "Number of animals with unilateral hemiptosis", "setting": "[2]; 3 days after ischemic insult", "value": 20, "unit": "%"},
      {"measurement": "Number of animals with bilateral hemiptosis", "setting": "[2]; 7 days after ischemic insult", "value": "20* %"},
      {"measurement": "Number of animals with limb weakness", "setting": "[2]; 7 days after ischemic insult", "value": 10, "unit": "%"},
      {"measurement": "Number of animals with sluggish, slow movements", "setting": "[2]; 7 days after ischemic insult", "value": 0, "unit": "%"},
      {"measurement": "Number of animals with unilateral hemiptosis", "setting": "[2]; 7 days after ischemic insult", "value": 0, "unit": "%"},
      {"measurement": "Number of animals with bilateral hemiptosis", "setting": "[2]; 14 days after ischemic insult", "value": 0, "unit": "%"},
      {"measurement": "Number of animals with limb weakness", "setting": "[2]; 14 days after ischemic insult", "value": 0, "unit": "%"},
      {"measurement": "Number of animals with sluggish, slow movements", "setting": "[2]; 14 days after ischemic insult", "value": 0, "unit": "%"},
      {"measurement": "Number of animals with unilateral hemiptosis", "setting": "[2]; 14 days after ischemic insult", "value": 0, "unit": "%"},
      {"measurement": "Number of animals with unilateral ptosis", "setting": "[2]; 14 days after ischemic insult", "value": 0, "unit": "%"},
      {"measurement": "Number of animals with circular movements", "setting": "[3]; [4]", "value": 25, "unit": "%"},
      {"measurement": "Number of animals with limb weakness", "setting": "[3]; [4]", "value": 50, "unit": "%"},
      {"measurement": "Number of animals with paresis of 1-4 limbs", "setting": "[3]; [4]", "value": "25* %"},
      {"measurement": "Number of animals with sluggish, slow movements", "setting": "[3]; [4]", "value": 50, "unit": "%"},
      {"measurement": "Number of animals with circular movements", "setting": "[3]; [5]", "value": 0, "unit": "%"},
      {"measurement": "Number of animals with limb weakness", "setting": "[3]; [5]", "value": 0, "unit": "%"},
      {"measurement": "Number of animals with paresis of 1-4 limbs", "setting": "[3]; [5]", "value": "0* %"},
      {"measurement": "Number of animals with sluggish, slow movements", "setting": "[3]; [5]", "value": 16.6, "unit": "%"}
    ]}
  ]
}
